Experimental data taken from US8691874B2, “Treatment of ophthalmic disorders using urea” (Kato Pharmaceuticals, Inc., priority 2000, dated 2014).
“And” between values parts separate entries of the source, which are not always exact repeats. Equal values may be shown once. Read-outs that look alike come from different tables or passages of the source.

Key:
[1] = cited from earlier work
[2] = tested on: human patients with single or multiple retinal tears; assay: Intravitreal urea 3 days before pneumatic Retinopexy in patients with retinal tears (Example I); format: in vivo
Procedure: All patients received pneumatic Retinopexy treatment 3 days after intravitreal injection of 1.5 mg of urea in 50 μl of aqueous solution prepared according to the formulation set forth in Table 11 above. […] Within 3-7 days after urea injection, 11/12 patients had developed PVD, only 1/12 patients had not developed PVD. Within 90 days of the urea injection that one patient also developed PVD.
Within 3 days of treatment 9/12 patients had complete retinal reattachment and macular attachment, and within 7 days all 12 patients had complete retinal reattachment and macular attachment.
(Tornambe, P. E. et. al. Opthalmology, 1989; 96: 772-783).

[3] = tested on: stage 3 idiopathic macular hole patient; assay: Intravitreal urea followed by C3F8 gas in a patient with idiopathic macular hole (Example II); format: in vivo, human; conditions: for visual acuity: baseline 20/400; for size of the macular hole: baseline 450 μm
Procedure: The macular defect was classified as a stage 3 macular hole, and the patient's visual acuity was recorded at 20/400 at a baseline time point prior to urea treatment. […] Seven days after the intravitreal urea injection the patient was administered an intravitreal injection of 0.3 ml of expandable gas (C3F8).
One week after administration of the gas, the size of the macular hole had decreased from 450 μm to a smaller size of 200 μm and the patient's vision had improved from a baseline visual acuity of 20/400 to 20/80. Two weeks post treatment the size of the macular hole had decreased from 450 μm to a smaller size of 90 μm and the patient's vision had improved from a baseline visual Acuity of 20/400 to 20/70. Four weeks post treatment the size of the macular hole had decreased from 450 μm to a smaller size of 60 μm and the patient's vision had improved from a baseline visual acuity of 20/400 to 20/60.

[4] = tested on: posterior vitreous of rabbits; assay: Injection of urea into the vitreous, specialized histological techniques in rabbits; format: in vivo; conditions: after urea treatment
Source text: (§1) In addition, disinsertion of the posterior vitreous has been observed in patients by the use of slit lamp biomicroscopy and in rabbits by specialized histological techniques after urea treatment.

[5] = cited from earlier work; remark: listed apart in the source
[6] = tested on: human patients with optic nerve damage caused by trauma and/or glaucoma; assay: Double masked placebo controlled dose escalation study in optic nerve damage (Example VIII); format: in vivo
Procedure: In accordance with the present invention, urea, thiourea, guanidine and possibly the other compounds of General Formula I above are effective to treat neuropathies (e.g., disorders or damage to nerves). In this example, 33 non sighted patients with optic nerve damage caused by trauma and/or glaucoma, with visual acuity of light perception or no light perception were administered a urea-containing formulation, as disclosed herein. The study was a double masked placebo controlled, randomized, dose escalation study conducted with 33 human patients with optic nerve damage. Patients were randomized into 5 groups, Group 1 of 5 patients, Group 2 of 4 patients, Group 3 of 8 patients, Group 4 of 8 patients and Group 5 of 8 patients. Each patient received a single intravitreal injection of 50 μl of an aqueous treatment solution, as follows:
In Six patients the vision improved from No light perception to light perception, in 2 patients the vision improved from light perception to count fingers at 12 inches, in 2 patients the vision improved from no light perception to 20/400 and 20/800 vision and in 2 patients the vision improved from light perception to 20/600 and 20/800 vision. No patients in the placebo group reported any improvement in best corrected visual acuity as measured by ETDRS charts.

[7] = 10% water solution; cited from earlier work
[8] = tested on: patients with nonproliferative diabetic retinopathy; assay: Treatment of nonproliferative diabetic retinopathy (Example VI); format: in vivo, human
Procedure: Sixty-nine patients with nonproliferative diabetic retinopathy were each administered a single intravitreal injection of 50 μl of a urea formulation containing 3% urea, 0.9% sodium chloride, and sterile water for injection.
The vitreous liquefaction and vitreous collapse in nonproliferative diabetic retinopathy patients would inhibit the growth and proliferation of the blood vessels, and thus inhibit the progression of diabetic retinopathy. All 69 (of the) patients were followed for six months following the procedure.

[9] = tested on: human patients requiring pars plana vitrectomy; assay: Intravitreal urea as adjunct to vitrectomy (Example V); format: in vivo
Procedure: In this example, five human patients requiring pars plana vitrectomy for various indications were treated one week prior to vitrectomy with a single intravitreal injection of 100 μl of a urea in aqueous solution. The formulation contained 6% urea, 0.9% sodium chloride, and sterile water for injection (qs 100%). All patients underwent routine vitrectomies 8 to 10 days after the urea injection. The minimum waiting time between the urea injection and the vitrectomy procedure is about 1 day to 3 days.
No vitrectomy cutter was used.

[10] = tested on: human patients with retinitis pigmentosa; assay: Double masked placebo controlled dose escalation study in retinitis pigmentosa (Example VII); format: in vivo
Procedure: A double masked placebo controlled, randomized, dose escalation study was done in 32 human patients with retinitis pigmentosa. All patients were treated with a single intravitreal injection of 50 μl of a urea-containing formulation. Three groups of patients received different concentrations of urea. One group received a formulation containing 1.5% urea, 0.9% sodium chloride, and sterile water for injection. A second group received an identical formulation except the formulation contained 3.0% urea. A third group received an identical formulation except the formulation contained 6.0% urea. A placebo group received 50 μl of 0.9% sodium chloride.
Forty-seven percent of the patient reported an increase of at least 3 lines of best corrected visual acuity measured by ETDRS charts, whereas, only 14% of the placebo patients reported an increase of at least 3 lines of best corrected visual acuity measured by ETDRS charts.
There was no dramatic increase in the visual field of the placebo control patients.

[11] = tested on: human patients with diabetes-related nonclearing vitreous hemorrhage; assay: Treatment of vitreous hemorrhage (Example IV); format: in vivo
Procedure: The formulations and treatments disclosed herein are also effective to treat vitreous hemorrhage. In this example, seven human patients were treated for diabetes-related nonclearing vitreous hemorrhage. Each patient received a single intravitreal injection of 100 μl of a formulation containing urea. The formulation used in this example contained 6% urea, 0.9% sodium chloride, and sterile water for injection (qs 100%).

[12] = tested on: patients with optic nerve damage related to optic nerve tumors; assay: Treatment of optic nerve damage related to optic nerve tumors (Example VIII); format: in vivo, human
Procedure: In another study, three patients with long standing (6 months or longer) optic nerve damage related to optic nerve tumors were treated with a single intravitreal injection of 100 μl of a 6% urea containing formulation. All three patient treated reported a significant improvement in visual acuity after treatment. The patients' visual acuity improved from an average of Count Fingers at 12 inches to 20/200.

[13] = tested on: vitreous body of patients; assay: Injection of urea into the vitreous, slit lamp biomicroscopy in patients; format: in vivo, human
Source text: as §1

[14] = one week after administration of the gas

Compound: NC(N)=O [urea]
- stability ([1]; aqueous urea solutions, develop an odor of ammonia): gradually degrade
- stability ([1]; stored under dry conditions at room temperature): stable
- adverse effects of the intravitreal injection, ophthalmoscopic and biomicroscopic examination ([2]; 1.5 mg urea in 50 μl intravitreal, 12 patients): no adverse effects
- average improvement of visual acuity per patient ([2]; 6 months after Retinopexy): 4.2 lines and 21 letters
- patients with improvement of more than 2 lines of visual acuity (11 letters) ([2]; 6 months post Retinopexy): 64%
- occurrence of new retinal tears with associated retinal detachment ([2]; 90 days follow up): none of the patients
- time by which the one remaining patient developed PVD ([2]; after urea injection, 1.5 mg in 50 μl): ≤ 90 days
- patients with improvement of more than 2 lines of visual acuity (11 letters) ([2]; urea 3 days prior to pneumatic Retinopexy, time point not given): 64%
- patients who had developed PVD ([2]; within 3-7 days after urea injection, 1.5 mg in 50 μl): 11/12
- patients with complete retinal reattachment and macular attachment ([2]; within 3 days of treatment): 9/12
- patients with complete retinal reattachment and macular attachment ([2]; within 7 days): 12 patients
- adverse effects of the intravitreal injection, ophthalmoscopic and biomicroscopic examination ([3]; 1.5 mg urea in 50 μl): no adverse effects
- visual acuity ([3]; four weeks post treatment): 20/60
- size of the macular hole ([3]; four weeks post treatment): 60 μm
- visual acuity [3, 14]: 20/80
- size of the macular hole [3, 14]: 200 μm
- time to complete Posterior Vitreous Detachment (PVD) ([3]; single intravitreal 1.5 mg urea in 50 μl, Table III formulation): ≤ 7 days
- visual acuity ([3]; two weeks post treatment): 20/70
- size of the macular hole ([3]; two weeks post treatment): 90 μm
- disinsertion of the posterior vitreous [4]: observed
- solubility ([5]; in chloroform or ether): practically insoluble
- solubility ([5]; in water, ethanol, methanol and glycerol): very soluble
- patients whose vision improved from No light perception to light perception ([6]; 50 μl of 0.2-6.0% urea): Six
- patients whose vision improved from light perception to 20/600 and 20/800 vision ([6]; 50 μl of 0.2-6.0% urea): 2 patients
- patients whose vision improved from light perception to count fingers at 12 inches ([6]; 50 μl of 0.2-6.0% urea): 2 patients
- patients whose vision improved from no light perception to 20/400 and 20/800 vision ([6]; 50 μl of 0.2-6.0% urea): 2 patients
- patients with increase of best corrected visual acuity measured by ETDRS charts ([6]; single intravitreal 50 μl of 0.2%, 1.5%, 3.0% or 6.0% urea): Forty-three
- pH [7]: 7.2
- time to complete vitreous liquefaction and collapse after administration ([8]; 50 μl of 3% urea): 2-4 weeks
- patients with complete vitreous liquefaction and collapse ([8]; single intravitreal 50 μl of 3% urea, 0.9% sodium chloride): 69 patients
- decrease in surgical time relative to patients who did not receive urea ([9]; 100 μl of 6% urea one week prior to vitrectomy): 70%
- vitreous liquefaction and collapse ([9]; by one week after single intravitreal 100 μl of 6% urea, five patients): complete vitreous liquefaction and collapse
- patients with increase of at least 3 lines of best corrected visual acuity measured by ETDRS charts ([10]; single intravitreal 50 μl of 1.5%, 3.0% or 6.0% urea, groups pooled): Forty-seven
- average improvement in the patient's visual field ([10]; urea-treated patients): 10 degrees
- rate of hemorrhagic blood clearance compared with normal clearance rates in clinical practice ([11]; 100 μl of 6% urea): significantly accelerated
- patients with clearance of vitreous hemorrhage sufficient to treat the retina with photocoagulation ([11]; single intravitreal 100 μl of 6% urea, 0.9% sodium chloride, seven patients): All seven
- average visual acuity after treatment ([12]; from an average of Count Fingers at 12 inches, 100 μl of 6% urea): 20/200
- patients reporting a significant improvement in visual acuity after treatment ([12]; single intravitreal 100 μl of 6% urea, three patients): All three
- liquefaction of the vitreous body and breakdown of hyaluronic acid of the vitreous ([13]; after injection of urea into the vitreous): within several days
- disinsertion of the posterior vitreous ([13]; patients, slit lamp biomicroscopy, after urea treatment): observed
